Experimental findings from patent US9956197B2 (priority 2013, dated 2018) are described below.

Assay [1] concerns PTZ (Pentylenetetrazol) induced clonic seizure. As to the kind of experiment: animal or person. Format: in vivo, ICR mice. The settings on record: for PTZ test (ip) in Mice Peak Time / PTZ test (ip) in Mice Protection %: mouse, in vivo.
The subject of assay [2] is Picrotoxin (PIC) induced clonic seizure. Kind of assay: animal or person. Format: in vivo, ICR mice.
Assay [3] concerns Lithium-pilocarpine induced status epilepticus. Also on record: species or system Sprague-Dawley rats. The conditions noted are these: in vivo.
Assay [4] has as its system ACTH-refractory infantile spasm (behavioral spasms). Kind of assay: animal or person. Type of assay: in vivo, Sprague-Dawley rats. The conditions noted are these: for inhibition in vivo at 60 mg/kg: Rattus norvegicus, ip, read-out: ACTH-refractory IS (ip) Protection %, percentage of activity compared to the vehicle only; for ACTH-refractory IS (ip) Peak Time: rat, in vivo.

Assay [5] has as its system Lithium-pilocarpine induced status epilepticus. On the set-up: species or system Sprague-Dawley rats. The settings on record: in vivo. The source holds these as a separate data set.
The subject of assay [6] is PTZ (Pentylenetetrazol) induced clonic seizure. On the set-up: species or system SD rats. The settings on record: rat, in vivo.
The mark [7] stands for this setting: Mus musculus, ip, read-out: PIC (ip) percentage of activity compared to the vehicle only.

Marks after values point to notes of the source that are not given here.

For the compound `CC[C@H](OC(N)=O)[C@@H](O)c1ccc(Cl)cc1Cl` [Compound 39, 1-(2,4-dichlorophenyl)-(S)-1-hydroxybutyl-(S)-2-carbamate], the “PTZ test (ip) in Mice Peak Time” value in assay [1] (ip) came out at 0.5 h. Further, the responders at 50 mg/kg in assay [2] (setting [7]) was 66.7%.

Turning to `CCCC[C@H](OC(N)=O)[C@@H](O)c1c(Cl)cccc1Cl` [Compound 44, 1-(2,6-dichlorophenyl)-(S)-1-hydroxyhexyl-(S)-2-carbamate], the “PTZ test (ip) in Mice Protection %” value in assay [1] is listed as “^a20.4 (33.3%)”. The responders at 50 mg/kg in assay [2] (setting [7]) amounted to 16.6%.

`C[C@H](OC(N)=O)[C@@H](O)c1ccccc1I` [Compound 65, 1-(2-iodophenyl)-(S)-1-hydroxypropyl-(S)-2-carbamate]: the “PTZ test (ip) in Mice Protection %” value in assay [1] is listed as “^a20.4 (100%)”. For the same compound, in assay [2] (mice, injection amount 50 mg/kg), the “PIC (ip) percentage of activity compared to the vehicle only” value was 50^a (100%). Also, the “Intervention (rat, iv) Protection %” value in assay [3] is “^a46 (100%)”. Also, in assay [4], the inhibition in vivo at 60 mg/kg was 92.1% and the “ACTH-refractory IS (ip) Peak Time” value came out at 3 h. For the same compound, the “Prevention (rat, ip) Peak Time” value in assay [5] was found to be 2 h.

`CC(OC(=O)NC1CC1)C(O)c1ccccc1Cl` (racemic) [Compound 32, 1-(2-chlorophenyl)-1-hydroxypropyl-2-N-cyclopropylcarbamate]: the “PTZ test (ip) in Mice Protection %” value in assay [1] is “^a20.4 (16.7%)”. Besides, in assay [3], the “Intervention (rat, iv) Protection %” value is on record as “^a46 (100%)”.

As to `C[C@H](OC(N)=O)[C@@H](O)c1c(Cl)cccc1Cl` [Compound 37, 1-(2,6-dichlorophenyl)-(S)-1-hydroxypropyl-(S)-2-carbamate], in assay [1] (ip), the “PTZ test (ip) in Mice Peak Time” value is 0.25 h. The ED50 in assay [2] (Mus musculus, ip, read-out: PIC (ip) ED50) is 23.4 mg/kg. In addition, the “PIC (ip) Peak Time” value in assay [2] (mice) was determined as 0.25 h. For the same compound, in assay [3], the “Intervention (rat, iv) Protection %” value was “^a46 (100%)”. Further, in assay [4], the inhibition in vivo at 60 mg/kg stood at 83.8% and the “ACTH-refractory IS (ip) Peak Time” value was 3 h.

For `C[C@@H](OC(N)=O)[C@H](O)c1cccc(Cl)c1Cl` [Compound 47, 1-(2,3-dichlorophenyl)-(R)-1-hydroxypropyl-(R)-2-carbamate], in assay [4], the inhibition in vivo at 60 mg/kg was determined as 91% and the “ACTH-refractory IS (ip) Peak Time” value is on record as 3 h.

Consider `CCCCC(OC(N)=O)C(O)c1ccccc1Cl` (racemic) [Compound 14, 1-(2-chlorophenyl)-1-hydroxyhexyl-2-carbamate], for which, in assay [1], the “PTZ test (ip) in Mice Protection %” value is given as “^a20.4 (16.7%)”. Also, in assay [2] (setting [7]), the responders at 50 mg/kg stood at 16.7%.

For `CCCC[C@H](OC(N)=O)[C@@H](O)c1ccccc1Cl` [Compound 12, 1-(2-chlorophenyl)-(S)-1-hydroxyhexyl-(S)-2-carbamate], the “PTZ test (ip) in Mice Protection %” value in assay [1] is given as “^a20.4 (33.3%)”. Moreover, in assay [2] (setting [7]), the responders at 50 mg/kg amounted to 16.7%.

Turning to `CC(C)[C@H](OC(N)=O)[C@@H](O)c1ccccc1Cl` [Compound 9, 1-(2-chlorophenyl)-(S)-1-hydroxy-3-methyl-butyl-(S)-2-carbamate], the “PTZ test (ip) in Mice Protection %” value in assay [1] is listed as “^a20.4 (33.3%)”. For the same compound, in assay [2] (setting [7]), the responders at 50 mg/kg is 16.7%.

With `CCCNC(=O)O[C@H](C)[C@H](O)c1ccccc1Cl` [Compound 23, 1-(2-chlorophenyl)-(R)-1-hydroxypropyl-(R)-2-N-propylcarbamate], the responders at 20.4 mg/kg in assay [1] (Mus musculus, ip, read-out: PTZ test (ip) in Mice Protection %) worked out at 50%. Besides, the responders at 50 mg/kg in assay [2] (setting [7]) was found to be 16.7%. The “Intervention (rat, iv) Protection %” value in assay [3] is listed as “^a46 (100%)”.

As for `C[C@@H](OC(=O)NC1CC1)[C@H](O)c1ccccc1Cl` [Compound 25, 1-(2-chlorophenyl)-(R)-1-hydroxypropyl-(R)-2-N-cyclopropylcarbamate], the “PTZ test (ip) in Mice Protection %” value in assay [1] is recorded as “^a20.4 (66.7%)”. In assay [3], the “Intervention (rat, iv) Protection %” value is “^a46 (100%)”.

`C[C@H](OC(N)=O)[C@H](O)c1ccccc1Cl` [Compound 5, 1-(2-chlorophenyl)-(R)-1-hydroxypropyl-(S)-2-carbamate]: the “PTZ test (ip) in Mice Peak Time” value in assay [1] (ip) came out at 0.5 h.

As for `C[C@H](OC(N)=O)[C@@H](O)c1cccc(Cl)c1Cl` [Compound 38, 1-(2,3-dichlorophenyl)-(S)-1-hydroxypropyl-(S)-2-carbamate], the responders at 50 mg/kg in assay [2] (setting [7]) is 50%. For the same compound, in assay [3], the “Intervention (rat, iv) Protection %” value was “^a46 (50%)”.

As to `CC(C)NC(=O)OC(C)C(O)c1ccccc1Cl` (racemic) [Compound 31, 1-(2-chlorophenyl)-1-hydroxypropyl-2-N-isopropylcarbamate], in assay [1], the “PTZ test (ip) in Mice Protection %” value is “^a20.4 (83.3%)”. In assay [2] (setting [7]), the responders at 50 mg/kg came to 16.7%. In assay [3], the “Intervention (rat, iv) Protection %” value is on record as “^a46 (100%)”.

Turning to `CC[C@H](OC(N)=O)[C@@H](O)c1ccccc1Cl` [Compound 6, 1-(2-chlorophenyl)-(S)-1-hydroxybutyl-(S)-2-carbamate], the “PTZ test (ip) in Mice Peak Time” value in assay [1] (ip) turned out to be 0.5 h. The responders at 50 mg/kg in assay [2] (setting [7]) turned out to be 66.7%. Moreover, the “Intervention (rat, iv) Protection %” value in assay [3] is “^a46 (100%)”. Besides, in assay [4], the inhibition in vivo at 60 mg/kg stood at 76.2% and the “ACTH-refractory IS (ip) Peak Time” value is given as 3 h.

For the compound `C[C@H](OC(N)=O)[C@@H](O)c1ccccc1F` [Compound 63, 1-(2-fluorophenyl)-(S)-1-hydroxypropyl-(S)-2-carbamate], in assay [2] (setting [7]), the responders at 60 mg/kg amounted to 33.3%. The “Intervention (rat, iv) Protection %” value in assay [3] is “^a46 (50%)”. The “Prevention (rat, ip) Peak Time” value in assay [5] was 0.25 h.

For `CCC(OC(N)=O)C(O)c1ccccc1Cl` (racemic) [Compound 8, 1-(2-chlorophenyl)-1-hydroxybutyl-2-carbamate], in assay [2] (setting [7]), the responders at 50 mg/kg was determined as 33.3%. Further, the “Intervention (rat, iv) Protection %” value in assay [3] was “^a46 (50%)”.

`CC[C@H](OC(N)=O)[C@@H](O)c1c(Cl)cccc1Cl` [Compound 40, 1-(2,6-dichlorophenyl)-(S)-1-hydroxybutyl-(S)-2-carbamate]: the “PTZ test (ip) in Mice Protection %” value in assay [1] was “^a20.4 (33.3%)”. In addition, the responders at 50 mg/kg in assay [2] (setting [7]) was found to be 66.6%. Also, the “Intervention (rat, iv) Protection %” value in assay [3] is “^a46 (100%)”.

`CCCNC(=O)OC(C)C(O)c1ccccc1Cl` (racemic) [Compound 30, 1-(2-chlorophenyl)-1-hydroxypropyl-2-N-propylcarbamate]: the “PTZ test (ip) in Mice Protection %” value in assay [1] was “^a20.4 (33.3%)”. Besides, the responders at 50 mg/kg in assay [2] (setting [7]) came out at 16.7%.

As to `CCCC[C@H](OC(N)=O)[C@@H](O)c1ccc(Cl)cc1Cl` [Compound 43, 1-(2,4-dichlorophenyl)-(S)-1-hydroxyhexyl-(S)-2-carbamate], the responders at 50 mg/kg in assay [2] (setting [7]) stood at 16.6%. Besides, the “PTZ test (ip) in Rats Protection %” value in assay [6] is on record as “^b25 (33.3%)”.

As for `CNC(=O)O[C@@H](C)[C@@H](O)c1ccccc1Cl` [Compound 15, 1-(2-chlorophenyl)-(S)-1-hydroxypropyl-(S)-2-N-methylcarbamate], in assay [2] (setting [7]), the responders at 50 mg/kg was 50%. In addition, the “Intervention (rat, iv) Protection %” value in assay [3] was “^a46 (100%)”. In addition, the “PTZ test (ip) in Rats Protection %” value in assay [6] is on record as “^b25 (33.3%)”. Also, in assay [4], the inhibition in vivo at 60 mg/kg was 67.4% and the “ACTH-refractory IS (ip) Peak Time” value amounted to 2 h.

With `CCCC[C@@H](OC(N)=O)[C@H](O)c1ccccc1Cl` [Compound 13, 1-(2-chlorophenyl)-(R)-1-hydroxyhexyl-(R)-2-carbamate], the responders at 50 mg/kg in assay [2] (setting [7]) is 16.7%.

With `C[C@H](OC(=O)NC1CC1)[C@@H](O)c1ccccc1Cl` [Compound 18, 1-(2-chlorophenyl)-(S)-1-hydroxypropyl-(R)-2-N-cyclopropylcarbamate], the “Intervention (rat, iv) Protection %” value in assay [3] was “^a46 (66.7%)”. Moreover, the “PTZ test (ip) in Rats Protection %” value in assay [6] is given as “^b30 (16.7%)”.

Turning to `CCCNC(=O)O[C@@H](C)[C@@H](O)c1ccccc1Cl` [Compound 16, 1-(2-chlorophenyl)-(S)-1-hydroxypropyl-(S)-2-N-propylcarbamate], the “Intervention (rat, iv) Protection %” value in assay [3] is recorded as “^a46 (100%)”. Further, in assay [6], the “PTZ test (ip) in Rats Protection %” value is on record as “^b30 (33.3%)”.

On to `C[C@@H](OC(N)=O)[C@@H](O)c1ccccc1Cl` [Compound 4, 1-(2-chlorophenyl)-(S)-1-hydroxypropyl-(R)-2-carbamate], for which the “PTZ test (ip) in Mice Peak Time” value in assay [1] (ip) is listed as 0.5 h. Further, the responders at 30 mg/kg in assay [2] (setting [7]) turned out to be 100%. The “Intervention (rat, iv) Protection %” value in assay [3] is listed as “^a46 (100%)”. Besides, in assay [4], the inhibition in vivo at 60 mg/kg was 24.3% and the “ACTH-refractory IS (ip) Peak Time” value came out at 3 h.

As for `C[C@@H](OC(N)=O)[C@H](O)c1c(Cl)cccc1Cl` [Compound 46, 1-(2,6-dichlorophenyl)-(R)-1-hydroxypropyl-(R)-2-carbamate], the responders at 50 mg/kg in assay [2] (setting [7]) turned out to be 33.3%. Besides, in assay [3], the “Intervention (rat, iv) Protection %” value is “^a46 (50%)”. In assay [4], the inhibition in vivo at 60 mg/kg amounted to 78% and the “ACTH-refractory IS (ip) Peak Time” value came out at 3 h.

Regarding `C[C@@H](OC(N)=O)[C@H](O)c1ccc(Cl)cc1Cl` [Compound 45, 1-(2,4-dichlorophenyl)-(R)-1-hydroxypropyl-(R)-2-carbamate], the “PTZ test (ip) in Mice Protection %” value in assay [1] is “^a20.4 (16.7%)”. Besides, the “Intervention (rat, iv) Protection %” value in assay [3] is “^a46 (33.3%)”. For the same compound, the “PTZ test (ip) in Rats Protection %” value in assay [6] is given as “^b50 (16.7%)”.

With `CNC(=O)OC(C)C(O)c1ccccc1Cl` (racemic) [Compound 29, 1-(2-chlorophenyl)-1-hydroxypropyl-2-N-methylcarbamate], the “PTZ test (ip) in Mice Protection %” value in assay [1] is recorded as “^a20.4 (33.3%)”.

Regarding `C[C@H](OC(N)=O)[C@@H](O)c1ccc(Cl)cc1Cl` [Compound 36, 1-(2,4-dichlorophenyl)-(S)-1-hydroxypropyl-(S)-2-carbamate], the “PTZ test (ip) in Mice Protection %” value in assay [1] is listed as “^a20.4 (33.3%)”. Further, the responders at 50 mg/kg in assay [2] (setting [7]) worked out at 50%. In assay [4], the inhibition in vivo at 60 mg/kg was determined as 37.5% and the “ACTH-refractory IS (ip) Peak Time” value is listed as 3 h.
